Reference: PubChem BioAssay (NCI)
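Briefly, cells in 96-well plates were exposed to five compound concentrations for 48 h, and endpoints were estimated by linear interpolation. GI50 is the concentration that inhibits growth by half. At the TGI there is no net growth.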

What was measured:
Assay in all cases: growth of human tumour cells (NCI), 48 h
LOX IMVI melanoma = tested on: LOX IMVI melanoma
HL-60(TB) leukemia = tested on: HL-60(TB) leukemia
U251 CNS = tested on: U251 CNS
SK-MEL-28 melanoma = tested on: SK-MEL-28 melanoma
M14 melanoma = tested on: M14 melanoma
A498 renal = tested on: A498 renal
K-562 leukemia = tested on: K-562 leukemia
NCI-H226 lung = tested on: NCI-H226 lung

CC(=O)c1cc2ccccc2oc1=O
TGI (LOX IMVI melanoma): > 100 µM
TGI (HL-60(TB) leukemia): > 100 µM
TGI (U251 CNS): > 100 µM
TGI (SK-MEL-28 melanoma): > 100 µM
TGI (M14 melanoma): > 100 µM
TGI (A498 renal): > 100 µM
TGI (K-562 leukemia): > 100 µM
TGI (NCI-H226 lung): > 100 µM

OC(c1cc(C23CC4CC(CC(C4)C2)C3)nc2c(Cl)cc(Cl)cc12)C1CCCCN1 (stereo unspecified)
TGI (HL-60(TB) leukemia): 3.59 µM
TGI (U251 CNS): 3 µM
TGI (M14 melanoma): 3.13 µM
TGI (A498 renal): 3.05 µM
TGI (K-562 leukemia): 3.07 µM
TGI (NCI-H226 lung): 3.77 µM

Nc1onc2c1Cc1c(noc1N)-c1ccccc1-2
TGI (LOX IMVI melanoma): > 100 µM
TGI (HL-60(TB) leukemia): 49.7 µM
TGI (U251 CNS): > 100 µM
TGI (SK-MEL-28 melanoma): > 100 µM
TGI (M14 melanoma): > 100 µM
TGI (A498 renal): 72.2 µM
TGI (K-562 leukemia): > 100 µM
TGI (NCI-H226 lung): > 100 µM

COCN1C(=O)[C@@H]2CCCN2C(=O)c2cc(N)ccc21
TGI (LOX IMVI melanoma): > 100 µM
TGI (U251 CNS): > 100 µM
TGI (SK-MEL-28 melanoma): > 100 µM
TGI (M14 melanoma): > 100 µM
TGI (A498 renal): > 100 µM

CC(=O)Nc1c(C)cc2c(nc3n2CCC3O)c1[N+](=O)[O-] (stereo unspecified)
TGI (LOX IMVI melanoma): > 100 µM
TGI (HL-60(TB) leukemia): > 100 µM
TGI (U251 CNS): > 100 µM
TGI (SK-MEL-28 melanoma): > 100 µM
TGI (M14 melanoma): > 100 µM
TGI (A498 renal): > 100 µM
TGI (K-562 leukemia): > 100 µM
TGI (NCI-H226 lung): > 100 µM

C=CC(Cl)(CBr)CCC(Br)C(C)(C)Cl (stereo unspecified)
TGI (HL-60(TB) leukemia): 19.3 µM
TGI (U251 CNS): 27.4 µM
TGI (SK-MEL-28 melanoma): 33.1 µM
TGI (M14 melanoma): 29 µM
TGI (A498 renal): 27.2 µM
TGI (K-562 leukemia): 72.4 µM
TGI (NCI-H226 lung): > 100 µM

COc1cc(/C=C/C(=O)C2(C(=O)/C=C/c3cc(OC)c(OC)c(OC)c3)CCCCC2)cc(OC)c1OC
TGI (LOX IMVI melanoma): > 100 µM
TGI (HL-60(TB) leukemia): > 100 µM
TGI (U251 CNS): > 100 µM
TGI (SK-MEL-28 melanoma): > 100 µM
TGI (M14 melanoma): 81.7 µM
TGI (A498 renal): > 100 µM
TGI (K-562 leukemia): > 100 µM
TGI (NCI-H226 lung): > 100 µM

COc1cc2c(cc1OCCCC(=O)Nc1ccc3ccc4cccc5ccc1c3c45)N=C[C@@H]1CCCN1C2=O
GI50 (LOX IMVI melanoma): 0.0143 µM
TGI (LOX IMVI melanoma): > 100 µM
GI50 (U251 CNS): < 0.01 µM
TGI (U251 CNS): > 100 µM
GI50 (SK-MEL-28 melanoma): < 0.01 µM
TGI (SK-MEL-28 melanoma): < 0.01 µM
GI50 (M14 melanoma): < 0.01 µM
TGI (M14 melanoma): < 0.01 µM
GI50 (A498 renal): < 0.0243 µM
TGI (A498 renal): < 0.0509 µM
GI50 (K-562 leukemia): 0.19 µM
TGI (K-562 leukemia): 14.1 µM
GI50 (NCI-H226 lung): < 0.0109 µM
TGI (NCI-H226 lung): < 0.0243 µM

N[C@H]1CCCC[C@@H]1N1C(=O)c2ccccc2C1(O)c1ccc(Cl)cc1 (stereo partly specified)
TGI (LOX IMVI melanoma): 22.5 µM
TGI (HL-60(TB) leukemia): 20 µM
TGI (U251 CNS): 26.6 µM
TGI (SK-MEL-28 melanoma): 10.4 µM
TGI (M14 melanoma): 23.6 µM
TGI (A498 renal): 28.1 µM
TGI (K-562 leukemia): 13.2 µM
TGI (NCI-H226 lung): 31.3 µM

CO/N=C(\C)c1cccc(Nc2c3ccccc3nc3occc23)c1
TGI (LOX IMVI melanoma): 27.4 µM
TGI (HL-60(TB) leukemia): 13.6 µM
TGI (U251 CNS): 38.6 µM
TGI (SK-MEL-28 melanoma): 16.5 µM
TGI (M14 melanoma): 25.7 µM
TGI (A498 renal): 38.9 µM
TGI (K-562 leukemia): > 100 µM
TGI (NCI-H226 lung): 33.7 µM

Cc1cc(=O)oc2c(CNC(Cc3ccccc3)C(=O)O)c(O)ccc12 (stereo unspecified)
TGI (LOX IMVI melanoma): > 100 µM
TGI (HL-60(TB) leukemia): > 100 µM
TGI (U251 CNS): > 100 µM
TGI (SK-MEL-28 melanoma): > 100 µM
TGI (M14 melanoma): > 100 µM
TGI (K-562 leukemia): > 100 µM
TGI (NCI-H226 lung): > 100 µM

CCC(=O)Nc1ccc(N2C(=O)C(Cl)C2c2ccc(SC)cc2)cc1 (stereo unspecified)
TGI (LOX IMVI melanoma): > 100 µM
TGI (HL-60(TB) leukemia): > 100 µM
TGI (SK-MEL-28 melanoma): > 100 µM
TGI (M14 melanoma): > 100 µM
TGI (A498 renal): > 100 µM
TGI (K-562 leukemia): > 100 µM
TGI (NCI-H226 lung): 98.1 µM

COC(=O)C1(C)C=CC(=O)C2(C)C1C(O)C1OC3CC(c4ccoc4)C(C)=C3C1(C)C2CC(=O)O (stereo unspecified)
TGI (LOX IMVI melanoma): > 100 µM
TGI (HL-60(TB) leukemia): > 100 µM
TGI (U251 CNS): > 100 µM
TGI (SK-MEL-28 melanoma): > 100 µM
TGI (M14 melanoma): > 100 µM
TGI (A498 renal): > 100 µM

COc1cc(/C=c2\sc3n(c2=O)C(c2ccc(Cl)cc2)C2=C(CCCC2C)N=3)cc(OC)c1OC (stereo unspecified)
TGI (LOX IMVI melanoma): > 100 µM
TGI (HL-60(TB) leukemia): > 100 µM
TGI (U251 CNS): > 100 µM
TGI (SK-MEL-28 melanoma): > 100 µM
TGI (M14 melanoma): > 100 µM
TGI (A498 renal): > 100 µM
TGI (K-562 leukemia): > 100 µM

CC(=O)C1CC[C@@H]2[C@H](CC[C@]3(C)[C@@H](O)CC[C@@H]23)[C@H]1C(=O)O (stereo partly specified)
TGI (HL-60(TB) leukemia): > 100 µM
TGI (U251 CNS): > 100 µM
TGI (SK-MEL-28 melanoma): > 100 µM
TGI (M14 melanoma): > 100 µM
TGI (A498 renal): > 100 µM
TGI (K-562 leukemia): > 100 µM

O=C1c2ccccc2C(=O)N1CC(O)COc1cccc2ccccc12 (stereo unspecified)
TGI (LOX IMVI melanoma): > 100 µM
TGI (HL-60(TB) leukemia): > 100 µM
TGI (U251 CNS): > 100 µM
TGI (SK-MEL-28 melanoma): > 100 µM
TGI (M14 melanoma): > 100 µM
TGI (A498 renal): > 100 µM
TGI (K-562 leukemia): > 100 µM

COc1cc(Cc2nccc3cc(OC)c(OC)cc23)c(N=NN(C)C)cc1OC
TGI (U251 CNS): 72 µM
TGI (SK-MEL-28 melanoma): 31.1 µM
TGI (M14 melanoma): 39.3 µM
TGI (K-562 leukemia): > 100 µM
TGI (NCI-H226 lung): 60 µM

Cc1ccnc(NC(NC(=O)c2ccccc2)(C(F)(F)F)C(F)(F)F)c1
TGI (LOX IMVI melanoma): > 100 µM
TGI (HL-60(TB) leukemia): > 100 µM
TGI (U251 CNS): > 100 µM
TGI (SK-MEL-28 melanoma): > 100 µM
TGI (M14 melanoma): > 100 µM
TGI (K-562 leukemia): > 100 µM
TGI (NCI-H226 lung): > 100 µM

N#C/C(N)=C(\C#N)NC(=O)C(=O)N/C(C#N)=C(\N)C#N
TGI (LOX IMVI melanoma): > 100 µM
TGI (U251 CNS): > 100 µM
TGI (SK-MEL-28 melanoma): > 100 µM
TGI (M14 melanoma): > 100 µM
TGI (A498 renal): > 100 µM
TGI (K-562 leukemia): > 100 µM
TGI (NCI-H226 lung): > 100 µM

C=C1CCC([N+](=O)[O-])[C@](C)(N=O)CC[C@@H]2C1CC2(C)C (stereo partly specified)
TGI (LOX IMVI melanoma): 41.7 µM
TGI (HL-60(TB) leukemia): > 100 µM
TGI (U251 CNS): 48.2 µM
TGI (M14 melanoma): > 100 µM
TGI (K-562 leukemia): 79.1 µM
TGI (NCI-H226 lung): 30.9 µM

CCOC(=O)c1ccc(N=c2sc3ccccc3nc2Nc2ccc(C(=O)OCC)cc2)cc1
TGI (LOX IMVI melanoma): > 100 µM
TGI (HL-60(TB) leukemia): > 100 µM
TGI (U251 CNS): > 100 µM
TGI (SK-MEL-28 melanoma): > 100 µM
TGI (A498 renal): > 100 µM
TGI (K-562 leukemia): > 100 µM
TGI (NCI-H226 lung): > 100 µM

CC(C)(C)OC(=O)N1C(c2cccnc2)=CC[C@H]2C3CC=C(c4cccnc4)[C@@]3(C)CC[C@@H]21 (stereo partly specified)
TGI (LOX IMVI melanoma): 8.41 µM
TGI (HL-60(TB) leukemia): 14 µM
TGI (U251 CNS): 12 µM
TGI (M14 melanoma): 17.7 µM
TGI (A498 renal): 18.5 µM
TGI (K-562 leukemia): 38.6 µM
TGI (NCI-H226 lung): 15.1 µM

COc1ccc(/C=C2\CCC(C)C3=C2N=c2s/c(=C/c4cccc(Br)c4)c(=O)n2C3c2ccc(OC)c(OC)c2)cc1OC (stereo unspecified)
TGI (LOX IMVI melanoma): > 100 µM
TGI (HL-60(TB) leukemia): > 100 µM
TGI (U251 CNS): > 100 µM
TGI (SK-MEL-28 melanoma): > 100 µM
TGI (M14 melanoma): > 100 µM
TGI (A498 renal): > 100 µM
TGI (K-562 leukemia): > 100 µM

CCCC(=O)OC1C(CO)OC(n2cc(F)c(=O)[nH]c2=O)C1F (stereo unspecified)
TGI (LOX IMVI melanoma): > 100 µM
TGI (HL-60(TB) leukemia): > 100 µM
TGI (SK-MEL-28 melanoma): > 100 µM
TGI (A498 renal): > 100 µM
TGI (NCI-H226 lung): > 100 µM
